Test results reported in PubChem BioAssay (NCI).
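Briefly, cells in 96-well plates were exposed to five compound concentrations for 48 h, and endpoints were estimated by linear interpolation. TGI is the concentration that stops growth completely.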

Key:
Test in all cases: DTP human tumour cell line panel, 48 h
COLO 205 colon = test system: COLO 205 colon
PC-3 prostate = test system: PC-3 prostate
T-47D breast = test system: T-47D breast
NCI-H23 lung = test system: NCI-H23 lung
HCT-116 colon = test system: HCT-116 colon
A498 renal = test system: A498 renal
HOP-62 NSCLC = test system: HOP-62 NSCLC
CCRF-CEM leukemia = test system: CCRF-CEM leukemia
CAKI-1 renal = test system: CAKI-1 renal
U251 CNS = test system: U251 CNS
UACC-62 melanoma = test system: UACC-62 melanoma
MDA-MB-435 = test system: MDA-MB-435
M14 melanoma = test system: M14 melanoma
OVCAR-4 ovarian = test system: OVCAR-4 ovarian
SK-MEL-2 melanoma = test system: SK-MEL-2 melanoma
TK-10 renal = test system: TK-10 renal
RPMI-8226 leukemia = test system: RPMI-8226 leukemia

Compound | TGI (COLO 205 colon) | TGI (PC-3 prostate) | TGI (T-47D breast) | TGI (NCI-H23 lung) | TGI (HCT-116 colon) | TGI (A498 renal) | TGI (HOP-62 NSCLC) | TGI (CCRF-CEM leukemia) | TGI (CAKI-1 renal) | TGI (U251 CNS) | TGI (UACC-62 melanoma) | TGI (MDA-MB-435) | TGI (M14 melanoma) | TGI (OVCAR-4 ovarian) | TGI (SK-MEL-2 melanoma) | TGI (TK-10 renal) | TGI (RPMI-8226 leukemia)
CCCCCCCCCCCCCCCCCc1cccc(OCOCCOC)c1C(=O)O | 39.7 µM | 34.4 µM | 35.2 µM | 30.1 µM | 39.1 µM | 32.2 µM | 38.9 µM | > 77.5 µM | 35.1 µM | 41.6 µM | 32.4 µM | 40.9 µM | 35.9 µM | 34.8 µM | 39.2 µM | 34.3 µM | > 72.7 µM
CNNC1=NS(=O)(=O)c2cc(C#N)c(Cl)cc2S1 | > 10 µM | > 10 µM | > 10 µM | > 10 µM | > 10 µM | > 10 µM | > 10 µM | > 10 µM | > 10 µM | > 10 µM | > 10 µM | > 10 µM | > 10 µM | > 10 µM | > 10 µM | > 10 µM | > 10 µM
Cc1cc2c(c(C=Nc3ccccc3O)c1)OC1(C=C2)Oc2ccccc2C(=O)N1C (stereo not given) | 54.5 µM | 48.7 µM | 8.45 µM | 34.6 µM | 27.5 µM | 56.1 µM | 66.3 µM | 46.3 µM | 42.2 µM | 41 µM | 36.2 µM | 82 µM | 57.5 µM | 60 µM | 50 µM | 48 µM | 84.3 µM
C=C=C(CC1CCCCC1=O)S(=O)(=O)c1ccccc1 (stereo not given) | > 10 µM | > 10 µM | > 10 µM | > 10 µM | > 4.94 µM | > 10 µM | > 10 µM | 7.24 µM | > 10 µM | > 10 µM | > 10 µM | > 10 µM | > 10 µM | > 10 µM | > 10 µM | > 10 µM | > 4.76 µM
COc1cc(NS(C)(=O)=O)ccc1Nc1cc[nH]c2ccc3nccc3c12 | 41.4 µM | 26 µM | 33.2 µM | 29.8 µM | 24.7 µM | 30.7 µM | 30.6 µM | 40.9 µM | 32.5 µM | 27.3 µM | 32.5 µM | 30.1 µM | 32.2 µM | 29.7 µM | 30.9 µM | 30.3 µM | 31.7 µM
C#C[C@]1(O)CC[C@H]2[C@@H]3CCC4=C/C(=N/OCCN(C)C)CC[C@]4(C)[C@H]3CC[C@@]21C | > 100 µM | > 100 µM | > 100 µM | > 100 µM | > 100 µM | > 100 µM | > 100 µM | 83.1 µM | > 100 µM | > 100 µM | > 100 µM | 32.2 µM | 35.2 µM | > 100 µM | > 100 µM | > 100 µM | > 100 µM
OC(c1ccc(F)cc1)C(F)(F)c1nc2ccccc2o1 (stereo not given) | > 100 µM | > 100 µM | > 100 µM | > 100 µM | > 100 µM | > 100 µM | > 100 µM | > 100 µM | > 100 µM | > 100 µM | > 100 µM | > 100 µM | > 100 µM | > 100 µM | > 100 µM | > 100 µM | > 100 µM
C=CCN(c1cc(OCc2ccccc2)c2[nH]cc(C)c2c1)S(C)(=O)=O | > 100 µM | > 100 µM | 60.6 µM | > 100 µM | > 100 µM | 90.9 µM | > 100 µM | > 100 µM | > 100 µM | > 100 µM | > 100 µM | > 100 µM | > 100 µM | > 100 µM | > 100 µM | > 100 µM | > 100 µM
O=C(O[C@@H](/C=C/c1ccccc1)P1(=O)N(Cc2ccccc2)[C@H]2CCCC[C@@H]2N1Cc1ccccc1)c1ccccc1 | 3.17 µM | 8.54 µM | 47.2 µM | 36 µM | > 100 µM | 8.43 µM | 10.8 µM | 17.9 µM | 11.5 µM | 11.1 µM | 7.47 µM | > 100 µM | > 100 µM | > 100 µM | 3.98 µM | 37 µM | 7.31 µM
Cc1cn([C@@H]2C[C@@H]2CO)c(=O)[nH]c1=O | > 100 µM | > 100 µM | > 100 µM | > 100 µM | > 100 µM | > 100 µM | > 100 µM | > 100 µM | > 100 µM | > 100 µM | > 100 µM | > 100 µM | > 100 µM | > 100 µM | > 100 µM | > 100 µM | > 100 µM
